Source: patent US7667048B2, “Green and orange fluorescent labels and their uses” (Aries Associates, Inc., priority 2002, dated 2010)

Assay: Fluorescence excitation and emission spectra
Format: physicochemical
Protocol: Fluorescence excitation and emission spectra were measured either using Hitachi F-4500 Fluorescence Spectrophotometer in ratio mode with a rhodamine B quantum counter. For fluorescence polarization experiments, two different detection instruments were used, a BMG Polarstar and an LJL Analyst. Molecular brightness measurements in 96-well and 384-well microtiter plates were performed in the following four instruments: (1) the LJL analyst, (2) the Tecan Ultra, (3) the PerSeptive and, (4) Chromagen's own photon counting instrument as described in U.S. patent application Ser. No. 09/552/803 and its continuation in part.

Compound: 1-Hydroxy-3,6-dimethylsulfonamido-8-sulfonate-pyrene [compound 14]
- fluorescence λ em (MeOH/H2O): 545 nm
- fluorescence λ ex (MeOH/H2O): 490 nm

Compound: 3-Hydroxy-6,8-disulfonate-(4′-succinyl-6′-aminohexyl)-pyrene [compound 5]
- fluorescence λ em (H2O): 505 nm
- fluorescence λ ex (H2O): 450 nm

Compound: 3-Hydroxy-6,8-disulfonate-(4′-succinylamino-6′-isothiocyanyl-hexyl)-pyrene [compound 6]
- fluorescence λ em (H2O): 503 nm
- fluorescence λ ex (H2O): 450 nm

Compound: Nc1cc(O)c2ccc3c(S(=O)(=O)O)cc(S(=O)(=O)O)c4ccc1c2c43 [compound 3, 1-Amino-3-hydroxy-6,8-disulfonate-pyrene]
- fluorescence λ em (H2O): 492 nm
- fluorescence λ ex (H2O): 450 nm

Compound: COC(=O)CCC(=O)Nc1cc(O)c2ccc3c(S(=O)(=O)O)cc(S(=O)(=O)O)c4ccc1c2c34 [compound 4, 3-Hydroxy-6,8-disulfonate-methylsuccinylamino-pyrene]
- fluorescence λ em (H2O): 492 nm
- fluorescence λ ex (H2O): 450 nm

Compound: NCCCC(=O)c1cc(O)c2ccc3c(S(=O)(=O)O)cc(S(=O)(=O)O)c4ccc1c2c34 [compound 7, 3-Hydroxy, 6,8-disulfonate-aminoethylacetyl-pyrene]
- fluorescence λ em (MeOH/H2O): 502 nm
- fluorescence λ ex (MeOH/H2O): 450 nm

Compound: CN(C)S(=O)(=O)c1cc(O)c2ccc3c(S(=O)(=O)N(C)CCCN)cc(S(=O)(=O)N(C)C)c4ccc1c2c43 [compound 15, 1-Hydroxy-3,6-di-(dimethylsulfonamido)-8-(3-aminopropyl-methyl-sulfonamido)-pyrene]
- fluorescence λ em (MeOH/H2O): 548 nm
- fluorescence λ ex (MeOH/H2O): 490 nm

Compound: CN(C)S(=O)(=O)c1cc(O)c2ccc3c(S(=O)(=O)N(C)CCCN=C=S)cc(S(=O)(=O)N(C)C)c4ccc1c2c43 [compound 16]
- fluorescence λ em (MeOH/H2O): 548 nm
- fluorescence λ ex (MeOH/H2O): 490 nm

Compound: CN(C)S(=O)(=O)c1cc(O)c2ccc3c(S(=O)(=O)Nc4ccc(CCCC(=O)ON5C(=O)CCC5=O)cc4)cc(S(=O)(=O)N(C)C)c4ccc1c2c34 [compound 17, 1-Hydroxy-3,6-di(dimethylsulfonamido)-8-(4′-succinimidylbutyrate)-phenylsulfonamido-pyrene]
- fluorescence λ em (DMSO/Phosphate buffer): 553 nm
- fluorescence λ ex (DMSO/Phosphate buffer): 510 nm
